Measurements reported in patent US20230391779A1, “BICYCLIC COMPOUNDS, COMPOSITIONS AND USE THEREOF” (Betta Pharmaceuticals Co., Ltd., priority 2020, published 2023).

system: TEAD-YAP/TAZ interaction; assay: CTGF ELISA assay; format: cell-based, human; conditions: CTGF in culture supernatant of NCI-H2052 cells, 24 hours with compound
Experimental: The detection of CTGF expression level can assessed the binding activity of TEAD-YAP/TAZ transcription factor, and the CTGF expression level was quantified by SimpleStep ELISA® kit (Abcam, ab261851).
NCI-H2052 cells (Purchased from ATCC) were cultured in RPMI 1640 medium, adding 10% FBS and 1% Penicillin-Streptomycin Solution and 1 mM Sodium pyruvate. The day before compounds treatment, the cultured cells were washed with PBS and digested with trypsin, then centrifuged and collected. Discarded the supernatant, the cells were resuspended in fresh complete medium. After cells counted, cells were seeded at 6500 cells/well in 96-well plates. And then cells were cultured overnight in incubator (37° C., 5% CO2).
After the cells were cultured overnight, discarded the culture supernatant, then washed with PBS solution, cells were incubated with 200 μl medium containing compounds in each well. The starting concentration was 10 μM and serial dilution in DMSO and medium were performed to achieve a final DMSO concentration of 0.5% (Final compounds concentration were 10000, 2500, 625, 156, 39.1, 9.77, 2.44, 0.61 nM, 0 nM (0.5% DMSO), The cells were then cultured in incubator (37° C., 5% CO2). Cultured for 24 hours, the cells were centrifuged at 1500 RPM at 4° C. for 5 minutes, and then 50 μl of culture supernatant were tested for CTGF ELISA assay.
The Human CTGF SimpleStep ELISA® Kit (Abcam, ab261851) employs an affinity tag labeled capture antibody and a reporter conjugated detector antibody which immunocapture the sample analyte in solution. This entire complex (capture antibody/analyte/detector antibody) is in turn immobilized via immunoaffinity of an anti-tag antibody coating the well. To perform the assay, samples or standards are added to the wells, followed by the antibody mix (capture antibody/detector antibody). After incubation, the wells are washed to remove unbound material. TMB Development Solution is added and during incubation is catalyzed by HRP, generating blue coloration. This reaction is then stopped by addition of Stop Solution completing any color change from blue to yellow. Signal is generated proportionally to the amount of bound analyte and the intensity is measured at 450 nm. Firstly, prepare all reagents, samples, and standards as instructed. Add 50 μl standard or sample to appropriate wells. Then add 50 μl of the Antibody Cocktail to each well. Seal the plate and incubate for 1 hour at room temperature on a plate shaker. Wash each well with Wash Buffer three times. Add 100 μl of TMB Development Solution to each well and incubate for 10 minutes in the dark on a plate shaker. Add 100 μl of Stop Solution to each well. Shake plate on a plate shaker for 1 minute to mix. Record the OD at 450 nm. Determine the concentration of the target protein in the sample by the standard curve.
EC50 value was determined by fitting the concentration response curves using GraphPad Prism software. The compounds of the present invention were tested for their capacity to inhibit TEAD-YAP/TAZ interaction according to the fitted curves of CTGF concentration response to compounds.

| EC50 [nM] | Compound |
| --- | --- |
| 10 | C=CC(=O)N1CCC(n2nc(-c3ccc(C(F)(F)F)cc3)c3nccnc32)C1 (stereo not shown) [Compound 18, 1-(3-(3-(4-(trifluoromethyl)phen-yl)-1H-pyrazolo[3,4-b]pyrazin-1-yl)pyrrolidin-1-yl)prop-2-en-1-one] |
| > 10000 | CC(=O)N1CCC(n2nc(-c3ccc(C(F)(F)F)cc3)c3ccccc32)C1 (stereo not shown) [Com. EX.3, 1-(3-(3-(4-(trifluoromethyl)phenyl)-1H-indazol-1-yl)pyrrolidin-1-yl)ethan-1-one, reference compound] |
| > 10000 | C=C(F)C(=O)N1CC(n2c(=O)n(-c3ccc(Oc4ccccc4)cc3)c3cnccc32)C1 [Com. EX.4, 1-(1-(2-fluoroacryloyl)azetidin-3-yl)-3-(4-phenoxyphenyl)-1,3-dihydro-2H-imidazo[4,5-c]pyridin-2-one, reference compound] |
| 20 | C=CC(=O)N1CCC(n2nc(-c3ccc(C(F)(F)F)cc3)c3cccc(OC)c32)C1 (stereo not shown) [Compound 44, 1-(3-(7-methoxy-3-(4-(trifluoro-methyl)phenyl)-1H-indazol-1-yl)-pyrrolidin-1-yl)prop-2-en-1-one] |
| > 10000 | C=C(F)C(=O)NCC(C(=O)O)n1nc(-c2ccc(C(F)(F)F)cc2)c2cccnc21 (stereo not shown) [Com. EX.2, 3-(2-fluoroacrylamido)-2-(3-(4-(trifluoromethyl)phenyl)-1H-pyrazolo[3,4-b]pyridin-1-yl)propanoic acid, reference compound] |
| 30 | C=C(F)C(=O)N1CCC(n2nc(-c3ccc(C(F)(F)F)cc3)c3cc(OC)cnc32)C1 (stereo not shown) [Compound 95, 2-fluoro-1-(3-(5-methoxy-3-(4-(trifluoromethyl)phenyl)-1H-pyrazolo[3,4-b]pyridin-1-yl)-pyrrolidin-1-yl)prop-2-en-1-one] |
| 21 | C=CC(=O)N1CCC(n2nc(-c3ccc(C(F)(F)F)cc3)c3cccc(C(=O)OC)c32)C1 (stereo not shown) [Compound 78, methyl 1-(1-acryloylpyrrolidin-3-yl)-3-(4-(trifluoromethyl)phenyl)-1H-indazole-7-carboxylate] |
| 6 | C=C(F)C(=O)N1CCC(n2nc(-c3ccc(C(F)(F)F)cc3)c3ncn(C)c(=O)c32)C1 (stereo not shown) [Compound 77, 1-(1-(2-fluoroacryloyl)pyrrolidin-3-yl)-6-methyl-3-(4-(trifluoro-methyl)phenyl)-1,6-dihydro-7H-pyrazolo[4,3-d]pyrimidin-7-one] |
| 25 | C=C(F)C(=O)N1CC(n2nc3c(c2-c2ccc(C(F)(F)F)cc2)COCC3)C1 [Compound 209, 2-fluoro-1-(3-(3-(4-(trifluoro-methyl)phenyl)-6,7-dihydro-pyrano[4,3-c]pyrazol-2(4H)-yl)azetidin-1-yl)prop-2-en-1-one] |
| 34 | C=C(F)C(=O)N1CC(n2nc(-c3ccc(C#N)c(C(F)(F)F)c3)c3cccnc32)C1 [Compound 178, 4-(1-(1-(2-fluoroacryloyl)azetidin-3-yl)-1H-pyrazolo[3,4-b]pyridin-3-yl)-2-(trifluoromethyl)benzo-nitrile] |
| 20 | C=CC(=O)N1CCC(n2nc(-c3ccc(C(F)(F)F)cc3)c3ccncc32)C1 (stereo not shown) [Compound 22, 1-(3-(3-(4-(trifluoromethyl)phen-yl)-1H-pyrazolo[3,4-c]pyridin-1-yl)pyrrolidin-1-yl)prop-2-en-1-one] |
| 0.9 | C=C(F)C(=O)N1CC(n2nc(-c3ccc(C(F)(F)F)cc3)c3ccnc(OC)c32)C1 [Compound 222, 2-fluoro-1-(3-(7-methoxy-3-(4-(trifluoromethyl)phenyl)-1H-pyrazolo[3,4-c]pyridin-1-yl)-azetidin-1-yl)prop-2-en-1-one] |
| 8 | C=CC(=O)N1CC(n2nc(-c3ccc(C(F)(F)F)cc3F)c3cccnc32)C1 [Compound 127, 1-(3-(3-(2-fluoro-4-(trifluoro-methyl)phenyl)-1H-pyrazolo[3,4-b]pyridin-1-yl)azetidin-1-yl)prop-2-en-1-one] |
| 7.69 | C=C(F)C(=O)N1CC(n2nc(-c3cnc(C(F)(F)F)c(F)c3)c3cccnc32)C1 [Compound 184, 2-fluoro-1-(3-(3-(5-fluoro-6-(trifluoromethyl)pyridin-3-yl)-1H-pyrazolo[3,4-b]pyridin-1-yl)-azetidin-1-yl)prop-2-en-1-one] |
| 75 | C=CC(=O)N1CCC2(CCC(n3nc(-c4ccc(C(F)(F)F)cc4)c4ncccc43)C2)C1 (stereo not shown) [Compound 125, 1-(7-(3-(4-(trifluoromethyl)phen-yl)-1H-pyrazolo[4,3-b]pyridin-1-yl)-2-azaspiro[4.4]nonan-2-yl)-prop-2-en-1-one] |
| 16 | CC#CC(=O)N1CCC(n2nc(-c3ccc(C(F)(F)F)cc3)c3ccccc32)C1 (stereo not shown) [Compound 55, 1-(3-(3-(4-(trifluoromethyl)phen-yl)-1H-indazol-1-yl)pyrrolidin-1-yl)but-2-yn-1-one] |
| 12.6 | C=C(F)C(=O)N1CC(n2nc(-c3ccc(C(F)(F)F)nc3)c3ccccc32)C1 [Compound 197, 2-fluoro-1-(3-(3-(6-(trifluoro-methyl)pyridin-3-yl)-1H-indazol-1-yl)azetidin-1-yl)prop-2-en-1-one] |
| 183 | C=CC(=O)N1CCC(n2nc(-c3ccc(C(F)(F)F)nc3)c3cccc(C(=O)NC)c32)C1 (stereo not shown) [Compound 102, 1-(1-acryloylpyrrolidin-3-yl)-N-methyl-3-(6-(trifluoromethyl)-pyridin-3-yl)-1H-indazole-7-carboxamide] |
| 3.6 | C=C(F)C(=O)N1CC(n2nc(-c3ccc(C(F)(F)F)cc3)c3nc(C)n(C)c(=O)c32)C1 [Compound 225, 1-(1-(2-fluoroacryloyl)azetidin-3-yl)-5,6-dimethyl-3-(4-(trifluoro-methyl)phenyl)-1,6-dihydro-7H-pyrazolo[4,3-d]pyrimidin-7-one] |
| 0.6 | C=C(F)C(=O)N1CC(n2nc(-c3ccc(C(F)(F)F)cc3)c3ncc(OC)nc32)C1 [Compound 223, 2-fluoro-1-(3-(6-methoxy-3-(4-(trifluoromethyl)phenyl)-1H-pyrazolo[3,4-b]pyrazin-1-yl)-azetidin-1-yl)prop-2-en-1-one] |
| 97 | C=CC(=O)N1CCC(n2nc(-c3ccc(C(F)(F)F)nc3)c3cccc(C(=O)NC4COC4)c32)C1 (stereo not shown) [Compound 101, 1-(1-acryloylpyrrolidin-3-yl)-N-(oxetan-3-yl)-3-(6-(trifluorometh-yl)pyridin-3-yl)-1H-indazole-7-carboxamide] |
| 14 | C=CC(=O)N1CCC(n2nc(-c3ccc(C(F)(F)F)cc3)c3cccc(C(N)=O)c32)C1 (stereo not shown) [Compound 42, 1-(1-acryloylpyrrolidin-3-yl)-3-(4-(trifluoromethyl)phenyl)-1H-indazole-7-carboxamide] |
| 34 | C=CC(=O)N1CCC(n2nc(-c3ccc(C(F)(F)F)cc3)c3cccc(F)c32)C1 (stereo not shown) [Compound 70, 1-(3-(7-fluoro-3-(4-(trifluoro-methyl)phenyl)-1H-indazol-1-yl)-pyrrolidin-1-yl)prop-2-en-1-one] |
| 35 | C=CC(=O)N1CC(n2nc(-c3ccc(C(F)(F)F)cc3)c3cccc(NC(C)=O)c32)C1 [Compound 15, N-(1-(1-acryloylazetidin-3 yl)-3-(4-(trifluoromethyl)phenyl)-1H-indazol-7-yl)acetamide] |
| 84 | C=CC(=O)N1CCC(n2nc(-c3ccc(C(F)(F)F)cc3)c3cccc(C(=O)NC4CCC(F)(F)CC4)c32)C1 (stereo not shown) [Compound 111, 1-(1-acryloylpyrrolidin-3-yl)-N-(4,4-difluorocyclohexyl)-3-(4-(trifluoromethyl)phenyl)-1H-indazole-7-carboxamide] |
